According to the supplement of paper PMC10307832:

Key:
Experiment in all cases: relative viability (nuclei count vs DMSO), 5 days (fraction); higher = more cells survive
Idelalisib + Foretinib = compound: CC[C@H](Nc1ncnc2[nH]cnc12)c1nc2cccc(F)c2c(=O)n1-c1ccccc1 [Idelalisib] + COc1cc2c(Oc3ccc(NC(=O)C4(C(=O)Nc5ccc(F)cc5)CC4)cc3F)ccnc2cc1OCCCN1CCOCC1 [Foretinib] (partner 0.25 µM)
Method in brief: (§1)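 Relative viability is defined as nuclei in treated wells over nuclei in vehicle wells. Duplicate plates were run and medians reported. Lung cancer cell lines in 1536-well plates were dosed by pin tool one day after seeding, with one drug or with a fixed anchor-drug dose plus five library-drug doses (not always all listed) in √10 steps, and nuclei were counted after 5 days.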

Pemetrexed + Crizotinib = compound: Nc1nc2[nH]cc(CCc3ccc(C(=O)N[C@@H](CCC(=O)O)C(=O)O)cc3)c2c(=O)[nH]1 [Pemetrexed] + C[C@@H](Oc1cc(-c2cnn(C3CCNCC3)c2)cnc1N)c1c(Cl)ccc(F)c1Cl [Crizotinib] (partner 1 µM)
Method in brief: as §1

Pemetrexed + Decitabine = compound: Nc1nc2[nH]cc(CCc3ccc(C(=O)N[C@@H](CCC(=O)O)C(=O)O)cc3)c2c(=O)[nH]1 [Pemetrexed] + Nc1ncn([C@H]2C[C@H](O)[C@@H](CO)O2)c(=O)n1 [Decitabine] (partner 2 µM)
Method in brief: as §1

Idelalisib + Navitoclax = compound: CC[C@H](Nc1ncnc2[nH]cnc12)c1nc2cccc(F)c2c(=O)n1-c1ccccc1 [Idelalisib] + CC1(C)CCC(c2ccc(Cl)cc2)=C(CN2CCN(c3ccc(C(=O)NS(=O)(=O)c4ccc(N[C@H](CCN5CCOCC5)CSc5ccccc5)c(S(=O)(=O)C(F)(F)F)c4)cc3)CC2)C1 [Navitoclax] (partner 0.5 µM)
Method in brief: as §1

| Cell Line | relative viability (Idelalisib + Foretinib; first compound 0.04 µM) | relative viability (Idelalisib + Foretinib; first compound 0.1265 µM) | relative viability (Idelalisib + Foretinib; first compound 0.4 µM) | relative viability (Idelalisib + Foretinib; first compound 1.265 µM) | relative viability (Idelalisib + Foretinib; first compound 4 µM) | relative viability (Pemetrexed + Crizotinib; first compound 0.002 µM) | relative viability (Pemetrexed + Crizotinib; first compound 0.006325 µM) | relative viability (Pemetrexed + Crizotinib; first compound 0.02 µM) | relative viability (Pemetrexed + Crizotinib; first compound 0.06325 µM) | relative viability (Pemetrexed + Crizotinib; first compound 0.2 µM) | relative viability (Pemetrexed + Decitabine; first compound 0.002 µM) | relative viability (Pemetrexed + Decitabine; first compound 0.006325 µM) | relative viability (Pemetrexed + Decitabine; first compound 0.02 µM) | relative viability (Pemetrexed + Decitabine; first compound 0.06325 µM) | relative viability (Pemetrexed + Decitabine; first compound 0.2 µM) | relative viability (Idelalisib + Navitoclax; first compound 0.04 µM) | relative viability (Idelalisib + Navitoclax; first compound 0.1265 µM) | relative viability (Idelalisib + Navitoclax; first compound 0.4 µM) | relative viability (Idelalisib + Navitoclax; first compound 1.265 µM) | relative viability (Idelalisib + Navitoclax; first compound 4 µM) |
| --- | --- | --- | --- | --- | --- | --- | --- | --- | --- | --- | --- | --- | --- | --- | --- | --- | --- | --- | --- | --- |
| NCI-H2023 | 0.92 | 0.859 | 0.617 | 0.739 | 0.637 | 0.632 | 0.616 | 0.685 | 0.607 | 0.377 | 0.181 | 0.206 | 0.246 | 0.173 | 0.125 | 1.05 | 1.02 | 0.994 | 0.945 | 0.939 |
| Calu-6 | 0.895 | 0.909 | 0.844 | 0.894 | 0.767 | 0.814 | 0.754 | 0.922 | 0.72 | 0.68 | – | – | – | – | – | 0.987 | 0.938 | 0.755 | 0.822 | 0.776 |
| SW 900 | 0.796 | 1.14 | 0.869 | 0.766 | 0.563 | – | – | – | – | – | 0.342 | 0.433 | 0.553 | 0.377 | 0.424 | – | – | – | – | – |
| HOP-62 | 1.15 | 1.05 | 1.15 | 1.15 | 1.1 | 0.836 | 0.779 | 0.499 | 0.791 | 0.933 | 0.198 | 0.262 | 0.249 | 0.204 | 0.2 | 1.01 | 1.03 | 1.01 | 1.29 | 1.03 |
| H3255 | 0.641 | 0.569 | 0.853 | 0.939 | 0.921 | – | 0.952 | 0.926 | 0.864 | 0.608 | 0.494 | 0.581 | 0.681 | 0.535 | 0.454 | 0.617 | 0.513 | 0.506 | 0.415 | 0.38 |
| NCI-H1734 | 0.911 | 0.911 | 0.836 | 0.957 | 0.642 | 0.721 | 0.647 | 0.745 | 0.723 | 0.686 | 0.485 | 0.472 | 0.52 | 0.517 | 0.427 | 0.746 | 0.841 | 0.654 | 0.724 | 0.584 |
| SK-MES-1 | 0.904 | 0.768 | 0.55 | 0.768 | 0.544 | 1.06 | 0.938 | 0.99 | 1.01 | 0.832 | 0.369 | 0.331 | 0.408 | 0.421 | 0.367 | 0.995 | 1.41 | 1.12 | 1.08 | 0.867 |
